In the assay the test system is normal rats. Briefly: Cardiorenal actions of bolus ANP, CNP, VNP in anesthetized normal rats. Format: in vivo, rat.
Setting [1] is: normal rats, Recovery (after 30 minute washout).

“And” between values parts separate entries of the source, which are not always exact repeats. Equal entries are not always repeated.

As to `CC[C@H](C)[C@@H]1NC(=O)[C@H](CCCNC(=N)N)NC(=O)[C@H](CC(=O)O)NC(=O)[C@H](CCSC)NC(=O)[C@H](CCCNC(=N)N)NC(=O)CNC(=O)CNC(=O)[C@H](Cc2ccccc2)NC(=O)[C@@H](NC(=O)[C@H](CO)NC(=O)[C@H](CO)NC(=O)[C@H](CCCNC(=N)N)NC(=O)[C@H](CCCNC(=N)N)NC(=O)[C@H](CC(C)C)NC(=O)[C@@H](N)CO)CSSC[C@@H](C(=O)N[C@@H](CC(N)=O)C(=O)N[C@@H](CO)C(=O)N[C@@H](Cc2ccccc2)C(=O)N[C@@H](CCCNC(=N)N)C(=O)N[C@@H](Cc2ccc(O)cc2)C(=O)O)NC(=O)CNC(=O)[C@H](CC(C)C)NC(=O)CNC(=O)[C@H](CO)NC(=O)[C@H](CCC(N)=O)NC(=O)[C@H](C)NC(=O)CNC1=O` [ANP, Atrial natriuretic peptide], for the setting “normal rats, 5 μg/kg bolus”, the HR heart rate worked out at 353 ± 14 beats/minute, the “MAP mean arterial pressure” value stood at 97 ± 12 mmHg, the “RAP right atrial pressure” value is −2.3 ± 0.8 mmHg and the “UKV urine potassium excretion” value came to 10.3 ± 3.5 µmol/min. Besides, for the setting “normal rats, 5 μg/kg bolus”, the “UNaV urine sodium excretion” value was 13.2 ± 3.5 µmol/min, the UV urine volume came to 79 ± 10 µL/min and the “UcGMPV urine cGMP volume” value is 605 ± 151 pmol/min. Moreover, for the setting “normal rats, 50 μg/kg bolus”, the HR heart rate was 355 ± 19 beats/minute, the “MAP mean arterial pressure” value was 69 ± 7*+ mmHg, the “RAP right atrial pressure” value is reported as −3.8 ± 0.8*+ mmHg and the “UKV urine potassium excretion” value was 24.4 ± 8.7 µmol/min. For the setting “normal rats, 50 μg/kg bolus”, the “UNaV urine sodium excretion” value is 68.2 ± 15.7*+ μmol/minute, the UV urine volume was 341 ± 41*+ μl/minute and the “UcGMPV urine cGMP volume” value was 2580 ± 505*+ pmol/minute. Moreover, under setting [1], the HR heart rate came out at 368 ± 23 beats/minute, the “MAP mean arterial pressure” value is 92 ± 11*¶ mmHg, the “PcGMP plasma cGMP” value is recorded as 3.2 − 63¶ pmol/ml and the “RAP right atrial pressure” value was −0.8 ± 0.9¶ mmHg. Under setting [1], the “UKV urine potassium excretion” value came to 2.4 ± 0.1 µmol/min, the “UNaV urine sodium excretion” value is 8.9 ± 3.5¶ μmol/minute, the UV urine volume was 48 ± 14¶ μl/minute and the “UcGMPV urine cGMP volume” value is given as 105 ± 63¶ pmol/minute.
On to “C-type natriuretic peptide (GLSKGCFGLKLDRIGSMSGLGC) [CNP]”, for which, for the setting “rat, in vivo”, the HR heart rate is 363 ± 19 beats/minute and 365 ± 19 beats/minute and 363 ± 16 beats/minute; the “MAP mean arterial pressure” value was 100 ± 12 mmHg and 87 ± 9*+ mmHg and 104 ± 11*¶ mmHg.
As to vasonatrin peptide [VNP], for the setting “rat, in vivo”, the HR heart rate was 393 ± 20 beats/minute and 408 ± 25 beats/minute and 390 ± 20 beats/minute; the “MAP mean arterial pressure” value was 93 ± 15 mmHg and 79 ± 15*+ mmHg and 93 ± 15*¶ mmHg.

For the origin of these results see US6818619B2, “Chimeric natriuretic peptides” (Mayo Foundation for Medical Education and Research, priority 1999, dated 2004).
